Measured values: paper PMC6979384, “Characterization of the plant homeodomain (PHD) reader family for their histone tail interactions” (Epigenetics & Chromatin, 2020)

What was measured:
Experiment in all cases: Histone peptide microarray
Assay type in all cases: binding, human
AIRE (PP) = details: sheet "Array Heatmap"; GST-tagged AIRE (PP); arrays performed twice, total replicate number n = 4
In short: (§1)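 GST-tagged PHD finger readers were expressed, purified and applied at 0.5 μM to a microarray of 293 synthetic histone peptides carrying single or combinatorial PTMs, using an optimized protocol. Binding signals are averages with standard deviation from 4 replicates.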

BAZ2B = details: sheet "Array Heatmap"; GST-tagged BAZ2B; arrays performed twice, total replicate number n = 4
In short: as §1

BPTF (PB) = details: sheet "Array Heatmap"; GST-tagged BPTF (PB); arrays performed twice, total replicate number n = 4
In short: as §1

CHD4 (PPCC) = details: sheet "Array Heatmap"; GST-tagged CHD4 (PPCC); arrays performed twice, total replicate number n = 4
In short: as §1

CHD5 (PCC) = details: sheet "Array Heatmap"; GST-tagged CHD5 (PCC); arrays performed twice, total replicate number n = 4
In short: as §1

CHD5 (PPCC) = details: sheet "Array Heatmap"; GST-tagged CHD5 (PPCC); arrays performed twice, total replicate number n = 4
In short: as §1

DIDO1 = details: sheet "Array Heatmap"; GST-tagged DIDO1; arrays performed twice, total replicate number n = 4
In short: as §1

DPF2 (PPC2W2) = details: sheet "Array Heatmap"; GST-tagged DPF2 (PPC2W2); arrays performed twice, total replicate number n = 4
In short: as §1

ING1 = details: sheet "Array Heatmap"; GST-tagged ING1; arrays performed twice, total replicate number n = 4
In short: as §1

ING2 = details: sheet "Array Heatmap"; GST-tagged ING2; arrays performed twice, total replicate number n = 4
In short: as §1

ING3 = details: sheet "Array Heatmap"; GST-tagged ING3; arrays performed twice, total replicate number n = 4
In short: as §1

ING4 = details: sheet "Array Heatmap"; GST-tagged ING4; arrays performed twice, total replicate number n = 4
In short: as §1

ING5 = details: sheet "Array Heatmap"; GST-tagged ING5; arrays performed twice, total replicate number n = 4
In short: as §1

KDM4C (TTP) = details: sheet "Array Heatmap"; GST-tagged KDM4C (TTP); arrays performed twice, total replicate number n = 4
In short: as §1

KDM5A (1) = details: sheet "Array Heatmap"; GST-tagged KDM5A (1); arrays performed twice, total replicate number n = 4
In short: as §1

KDM5A (3) = details: sheet "Array Heatmap"; GST-tagged KDM5A (3); arrays performed twice, total replicate number n = 4
In short: as §1

KDM5B (1) = details: sheet "Array Heatmap"; GST-tagged KDM5B (1); arrays performed twice, total replicate number n = 4
In short: as §1

KDM5B (3) = details: sheet "Array Heatmap"; GST-tagged KDM5B (3); arrays performed twice, total replicate number n = 4
In short: as §1

KDM7A = details: sheet "Array Heatmap"; GST-tagged KDM7A; arrays performed twice, total replicate number n = 4
In short: as §1

MLL5 = details: sheet "Array Heatmap"; GST-tagged MLL5; arrays performed twice, total replicate number n = 4
In short: as §1

MORC3 (CW) = details: sheet "Array Heatmap"; GST-tagged MORC3 (CW); arrays performed twice, total replicate number n = 4
In short: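 Steps: express and purify GST-tagged PHD reader; incubate 0.5 μM protein on a peptide microarray (293 histone peptides, single or combined PTMs) following an optimized protocol; average signal across 4 replicates.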

PHF13 = details: sheet "Array Heatmap"; GST-tagged PHF13; arrays performed twice, total replicate number n = 4
In short: as §1

PHF21A = details: sheet "Array Heatmap"; GST-tagged PHF21A; arrays performed twice, total replicate number n = 4
In short: as §1

PHF23 = details: sheet "Array Heatmap"; GST-tagged PHF23; arrays performed twice, total replicate number n = 4
In short: as §1

PHF2 = details: sheet "Array Heatmap"; GST-tagged PHF2; arrays performed twice, total replicate number n = 4
In short: as §1

PHF8 = details: sheet "Array Heatmap"; GST-tagged PHF8; arrays performed twice, total replicate number n = 4
In short: as §1

PHRF1 (RP) = details: sheet "Array Heatmap"; GST-tagged PHRF1 (RP); arrays performed twice, total replicate number n = 4
In short: as §1

RAG2 = details: sheet "Array Heatmap"; GST-tagged RAG2; arrays performed twice, total replicate number n = 4
In short: as §1

SP140L = details: sheet "Array Heatmap"; GST-tagged SP140L; arrays performed twice, total replicate number n = 4
In short: as §1

TAF3 = details: sheet "Array Heatmap"; GST-tagged TAF3; arrays performed twice, total replicate number n = 4
In short: as §1

TRIM66 (PB) = details: sheet "Array Heatmap"; GST-tagged TRIM66 (PB); arrays performed twice, total replicate number n = 4
In short: as §1

Substance | Array Heatmap signal, AIRE (PP) (AIRE (PP)) | Array Heatmap signal, BAZ2B (BAZ2B) | Array Heatmap signal, BPTF (PB) (BPTF (PB)) | Array Heatmap signal, CHD4 (PPCC) (CHD4 (PPCC)) | Array Heatmap signal, CHD5 (PCC) (CHD5 (PCC)) | Array Heatmap signal, CHD5 (PPCC) (CHD5 (PPCC)) | Array Heatmap signal, DIDO1 (DIDO1) | Array Heatmap signal, DPF2 (PPC2W2) (DPF2 (PPC2W2)) | Array Heatmap signal, ING1 (ING1) | Array Heatmap signal, ING2 (ING2) | Array Heatmap signal, ING3 (ING3) | Array Heatmap signal, ING4 (ING4) | Array Heatmap signal, ING5 (ING5) | Array Heatmap signal, KDM4C (TTP) (KDM4C (TTP)) | Array Heatmap signal, KDM5A (1) (KDM5A (1)) | Array Heatmap signal, KDM5A (3) (KDM5A (3)) | Array Heatmap signal, KDM5B (1) (KDM5B (1)) | Array Heatmap signal, KDM5B (3) (KDM5B (3)) | Array Heatmap signal, KDM7A (KDM7A) | Array Heatmap signal, MLL5 (MLL5) | also measured
H3.3K27me3 + S28p: H3.3 15-34 | 0.3112 | 0.3578 | 0.288 | 0.5244 | 0.7455 | 0.4194 | 0.6255 | 0.5839 | 0.4657 | 0.582 | 0.4009 | 0.3661 | 0.2601 | 0.35 | 0.3549 | 0.3655 | 0.5567 | 0.357 | 0.2454 | 0.4825 | Array Heatmap signal, MORC3 (CW) (MORC3 (CW)): 0.3155; Array Heatmap signal, PHF13 (PHF13): 0.4998; Array Heatmap signal, PHF21A (PHF21A): 0.4021; Array Heatmap signal, PHF23 (PHF23): 0.4498; Array Heatmap signal, PHF2 (PHF2): 0.4942; Array Heatmap signal, PHF8 (PHF8): 0.2831; Array Heatmap signal, PHRF1 (RP) (PHRF1 (RP)): 0.3794; Array Heatmap signal, RAG2 (RAG2): 0.2001; Array Heatmap signal, SP140L (SP140L): 0.3164; Array Heatmap signal, TAF3 (TAF3): 0.2035; Array Heatmap signal, TRIM66 (PB) (TRIM66 (PB)): 0.52
H3.3K27me3: H3.3 15-34 [Peptide H3.3K27me3] | 0.536 | 0.5914 | 0.4048 | 0.5987 | 0.8198 | 0.6383 | 0.7249 | 0.7311 | 0.5843 | 0.6109 | 0.5349 | 0.5176 | 0.4224 | 0.5632 | 0.5261 | 0.4949 | 0.6871 | 0.5372 | 0.3849 | 0.5722 | Array Heatmap signal, MORC3 (CW) (MORC3 (CW)): 0.4234; Array Heatmap signal, PHF13 (PHF13): 0.7006; Array Heatmap signal, PHF21A (PHF21A): 0.5192; Array Heatmap signal, PHF23 (PHF23): 0.6091; Array Heatmap signal, PHF2 (PHF2): 0.5285; Array Heatmap signal, PHF8 (PHF8): 0.4126; Array Heatmap signal, PHRF1 (RP) (PHRF1 (RP)): 0.5177; Array Heatmap signal, RAG2 (RAG2): 0.2705; Array Heatmap signal, SP140L (SP140L): 0.3923; Array Heatmap signal, TAF3 (TAF3): 0.2913; Array Heatmap signal, TRIM66 (PB) (TRIM66 (PB)): 0.6617
